pIC50: −log10 of the molar value.

The target in the assay is TRPA1 (Homo sapiens, UniProt O75762). Kind of assay: Determination of TRPA1 activity in vitro (TRPA1 antagonism in vitro). The assay is classed as cell-based. The following applies: procedure of Wei et al., Anesthesiology 111 (2009) 147-154.
Sequence of TRPA1 (O75762 whole entry): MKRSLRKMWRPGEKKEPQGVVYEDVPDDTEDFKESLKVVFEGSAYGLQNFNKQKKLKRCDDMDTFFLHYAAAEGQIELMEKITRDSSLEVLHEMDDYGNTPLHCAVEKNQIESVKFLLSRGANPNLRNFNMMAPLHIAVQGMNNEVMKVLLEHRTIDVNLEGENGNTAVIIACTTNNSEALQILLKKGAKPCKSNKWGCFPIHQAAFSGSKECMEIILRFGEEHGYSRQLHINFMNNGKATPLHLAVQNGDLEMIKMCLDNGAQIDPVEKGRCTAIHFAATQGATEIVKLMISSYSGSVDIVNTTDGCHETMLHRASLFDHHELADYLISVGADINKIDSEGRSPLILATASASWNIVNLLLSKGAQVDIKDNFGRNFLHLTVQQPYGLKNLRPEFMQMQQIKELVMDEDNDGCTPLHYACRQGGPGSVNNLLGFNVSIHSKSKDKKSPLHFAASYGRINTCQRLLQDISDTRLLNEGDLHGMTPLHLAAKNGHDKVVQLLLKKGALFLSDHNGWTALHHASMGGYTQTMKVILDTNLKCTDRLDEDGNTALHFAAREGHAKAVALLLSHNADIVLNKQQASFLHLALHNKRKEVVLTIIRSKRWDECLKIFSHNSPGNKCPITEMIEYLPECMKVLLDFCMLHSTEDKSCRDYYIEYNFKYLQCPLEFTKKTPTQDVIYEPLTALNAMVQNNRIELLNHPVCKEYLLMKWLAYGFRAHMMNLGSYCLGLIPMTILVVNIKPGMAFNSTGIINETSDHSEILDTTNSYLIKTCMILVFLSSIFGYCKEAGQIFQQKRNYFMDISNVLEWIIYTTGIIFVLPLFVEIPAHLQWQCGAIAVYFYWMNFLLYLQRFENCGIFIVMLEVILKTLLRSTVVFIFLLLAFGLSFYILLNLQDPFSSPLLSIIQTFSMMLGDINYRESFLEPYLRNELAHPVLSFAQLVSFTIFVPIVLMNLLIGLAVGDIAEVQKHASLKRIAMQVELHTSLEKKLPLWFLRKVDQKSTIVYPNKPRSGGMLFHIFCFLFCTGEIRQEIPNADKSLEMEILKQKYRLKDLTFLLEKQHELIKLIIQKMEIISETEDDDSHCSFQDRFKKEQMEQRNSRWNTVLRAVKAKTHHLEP
With `C#CC(CC)(CC)NC(=O)c1cc(Br)ccc1NCCOC` [Example 43, 5-Bromo-(3-ethylpent-1-yn-3yl)-2-(2-methoxyethylamino)-benzamide], the pIC50 was 6.00.
As to `C#CC(C)(C)NC(=O)c1cc(F)c(F)cc1NCC(C)C` [Example 62, 4,5-Difluoro-2-(isobutylamino)-N-(2-methylbut-3-yn-2-yl)benzamide], the pIC50 is 6.40.
To `C#CC(C)(C)NC(=O)c1ccccc1NCCC(F)(F)F` [Example 79, N-(2-Methylbut-3-yn-2-yl)-2-(3,3,3-trifluoropropylamino)benzamide] belongs 5.74; to `C#CC(C)(C)NC(=O)c1cc(C(F)(F)F)ccc1NCCOC` [Example 48, 2-(2-Methoxyethylamino)-N-(2-methylbut-3-yn-2-yl)-5-(trifluoromethyl)benzamide], 5.24; to `C#CC(C)(C)NC(=O)c1cc(C(F)(F)F)cnc1NC(C)(C)C` [Example 128, 2-(tert-Butylamino)-N-(2-methylbut-3-yn-2-yl)-5-(trifluoromethyl)-nicotinamide], 5.96.
To `C#CC(C)(C)NC(=O)c1cc(C(F)(F)F)ccc1NC1CCC1` [Example 23, 2-(Cyclobutylamino)-N-(2-methylbut-3-yn-2-yl)-5-(trifluoromethyl)-benzamide] belongs 7.00.
For `C#CC(C)(CC)NC(=O)c1cccnc1Nc1ccc(F)c(OC)c1` (stereo not drawn) [Example 194, 2-(4-Fluoro-3-methoxyphenylamino)-N-(3-methylpent-1-yn-3-yl)nicotinamide], the pIC50 was 5.80.
`C#CC(C)(C)NC(=O)c1cc(F)ccc1NCCCC(F)(F)F` [Example 54, 5-Fluoro-N-(2-methylbut-3-yn-2-yl)-2-(4,4,4-trifluorobutylamino)-benzamide]: the negative logarithm of the IC50 (pIC50) is 5.92.
To `C#CC(CC)(CC)NC(=O)c1cc(I)ccc1NCCOC` [Example 47, N-(3-Ethylpent-1-yn-3-yl)-5-iodo-2-(2-methoxyethylamino)benzamide] belongs 6.30; to `C#CC(C)(CC)NC(=O)c1cccnc1Nc1cc(F)cc(C#N)c1` (stereo not drawn) [Example 187, 2-(3-Cyano-5-fluorophenylamino)-N-(3-methylpent-1-yn-3-yl)nicotinamide], 6.40; to “5-Bromo-2-(ethylamino)-N-(2-methylbut-3-yn-2-yl)nicotinanilide [Example 153]”, 4.98.
Take `C#CC(C)(C)NC(=O)c1cc(F)cnc1NCCOc1ccc(F)cc1` [Example 145, 5-Fluoro-2-(2-(4-fluorophenoxy)ethylamino)-N-(2-methylbut-3-yn-2-yl)nicotinamide]: the pIC50 was 5.48.
Turning to `C#CC(C)(C)NC(=O)c1cc(Cl)cnc1Nc1ccccc1` [Example 129, 5-Chloro-N-(2-methylbut-3-yn-2-yl)-2-(phenylamino)nicotinamide], the pIC50 is 6.15.
Next, `C#CC(C)(C)NC(=O)c1sccc1NCC(C)C` [Example 136, 3-(Isobutylamino)-N-(2-methylbut-3-yn-2-yl)thiophene-2-carboxamide]: 5.06; `C#CC(C)(C)NC(=O)c1cccnc1Nc1ccc(Cl)c(OC)c1` [Example 196, 2-(4-Chloro-3-methoxyphenylamino)-N-(2-methylbut-3-yn-2-yl)nicotinamide]: 5.49.
Next, `C#CC(C)(C)NC(=O)c1ccc(C(F)(F)F)nc1NC1CCOCC1` [Example 115, N-(2-Methylbut-3-yn-2-yl)-2-(tetrahydro-2H-pyran-4-ylamino)-6-(trifluoromethyl)nicotinamide]: 5.32; `C#CC(C)(C)NC(=O)c1cc(F)cnc1Nc1ccccc1` [Example 160, 5-Fluoro-N-(2-methylbut-3-yn-2-yl)-2-(phenylamino)nicotinamide]: 5.85; `C#CC(C)(C)NC(=O)c1cc(Cl)cnc1NC1CC(F)(F)C1` [Example 139, 5-Chloro-2-(3,3-difluorocyclobutylamino)-N-(2-methylbut-3-yn-2-yl)nicotinamide]: 6.52.
For the compound `C#CC(C)(C)NC(=O)c1cc(F)ccc1NCC(F)(F)F` [Example 22, 5-Fluoro-N-(2-methylbut-3-yn-2-yl)-2-(2,2,2-trifluoroethylamino)-benzamide], the pIC50 was 5.14.
Turning to `C#CC(C)(C)NC(=O)c1cnc(C(F)(F)F)nc1NC(C)(C)C` [Example 108, 4-(tert-Butylamino)-N-(2-methylbut-3-yn-2-yl)-2-(trifluoromethyl)pyrimidine-5-carboxamide], the pIC50 is 5.30.
Compound `C#CC(C)(C)NC(=O)c1cc(Cl)cnc1NCCC(F)(F)F` [Example 41, 5-Chloro-N-(2-methylbut-3yn-2-yl)-2-(3,3,3-trifluoropropylamino)-nicotinamide] showed a negative logarithm of the IC50 (pIC50) of 6.30.
Next, `C#CC(C)(C)NC(=O)c1ccc(C(F)(F)F)cc1NC` [Example 84, 2-(Methylamino)-N-(2-methylbut-3-yn-2-yl)-4-(trifluoromethyl)-benzamide]: 5.12.
For `C#CC(C)(C)NC(=O)c1cc(C)ccc1NC(C)C` [Example 93, 2-(Isopropylamino)-5-methyl-N-(2-methylbut-3-yn-2-yl)benzamide], the pIC50 is 4.94.
`C#CC(C)(CC)NC(=O)c1cccnc1Nc1ccc(F)cc1` (stereo not drawn) [Example 198, 2-(4-Fluorophenylamino)-N-(3-methylpent-1-yn-3-yl)nicotinamide]: the pIC50 is 6.70.
Next, `C#CC(C)(C)NC(=O)c1cc(C)ccc1NCC(F)(F)F` [Example 40, 5-Methyl-N-(2-methylbut-3-yn-2-yl)-2-(2,2,2-trifluoroethylamino)-benzamide]: 5.54.
`C#CC(C)(C)NC(=O)c1cc(Cl)ccc1NCC(F)F` [Example 5, 5-Chloro-2-(2,2-difluoroethylamino)-N-(2-methylbut-3-yn-2-yl)benzamide] had a pIC50 of 5.29.
Next, `C#CC(C)(C)NC(=O)c1ccc(C)cc1NCCC(F)(F)F` [Example 94, 4-Methyl-N-(2-methylbut-3-yn-2-yl)-2-(3,3,3-trifluoropropylamino)-benzamide]: 5.74; `C#CC(C)(C)NC(=O)c1cccnc1Nc1cc(F)cc(OC)c1` [Example 165, 2-(3-Fluoro-5-methoxyphenylamino)-N-(2-methylbut-3-yn-2-yl)nicotinamide]: 5.40; `C#CC(C)(C)NC(=O)c1ccccc1NCCCC` [Example 64, 2-(Butylamino)-N-(2-methylbut-3-yn-2-yl)benzamide]: 5.82.
To `C#CC(C)(C)NC(=O)c1cc(F)c(F)cc1NCC` [Example 65, 2-(Ethylamino)-4,5-difluoro-N-(2-methylbut-3-yn-2-yl)benzamide] belongs 5.31.
Next, `C#CC(C)(C)NC(=O)c1cc(Br)ccc1NCCC` [Example 124, 5-Bromo-NV-(2-methylbut-3-yn-2-yl)-2-(propylamino)benzamide]: 6.30; `C#CC(C)(C)NC(=O)c1cc(C(F)F)cnc1NC1CC(F)(F)C1` [Example 152, 2-(3,3-Difluorocyclobutylamino)-5-(difluoromethyl)-N-(2-methylbut-3-yn-2-yl)nicotinamide]: 5.62; `C#CC(C)(C)NC(=O)c1cc(F)cnc1NC(C)C(F)(F)F` (stereo not drawn) [Example 158, 5-Fluoro-N-(2-methylbut-3-yn-2-yl)-2-(1,1,1-trifluoropropan-2-ylamino)nicotinamide]: 5.40.
The compound `C#CC(C)(CC)NC(=O)c1cc(F)cnc1Nc1ccc(F)cc1` (stereo not drawn) [Example 171, 5-Fluoro-2-(4-fluorophenylamino)-N-(3-methylpent-1-yn-3-yl)nicotinamide] had a negative-log IC50 (pIC50) of 6.52.
In turn, `C#CC(C)(C)NC(=O)c1ccc(F)cc1NC(C)C` [Example 83, 4-Fluoro-2-(isopropylamino)-N-(2-methylbut-3-yn-2-yl)benzamide] had a negative logarithm of the IC50 (pIC50) of 5.54.
On to `C#CC(C)(C)NC(=O)c1cc(C(F)(F)F)ccc1NCCC(F)(F)F` [Example 12, N-(2-Methylbut-3-yn-2-yl)-5-(trifluoromethyl)-2-(3,33-trifluoropropylamino) benzamide], for which the negative logarithm of the IC50 (pIC50) is 6.30.
`C#CC(C)(C)NC(=O)c1cc(Cl)cnc1NC(C)(C)C` [Example 155, 2-(tert-Butylamino)-5-chloro-N-(2-methylbut-3-yn-2-yl)nicotinamide] showed a negative logarithm of the IC50 (pIC50) of 6.10.
Regarding `C#CC(C)(C)NC(=O)c1cc(F)cnc1NC1CCC1` [Example 25, 2-(Cyclobutylamino)-5-fluoro-N-(2-methylbut-3-yn-2-yl)nicotinamide], the pIC50 was 5.52.
In turn, `C#CC(C)(CC)NC(=O)c1cc(F)cnc1NC1CC(F)(F)C1` (stereo not drawn) [Example 164, 2-(3,3-Difluorocyclobutylamino)-5-fluoro-N-(3-methylpent-1-yn-3-yl)nicotinamide] had a pIC50 of 7.00.
To `C#CC(C)(C)NC(=O)c1cc(F)cnc1NCC(F)(F)C(F)(F)F` [Example 29, 5-Fluoro-N-(2-methylbut-3-yn-2-yl)-2-(2,2,3,3-pentafluoropropyl-amino)nicotinamide] belongs 6.40; to `C#CC(C)(C)NC(=O)c1cccnc1Nc1ccc(F)c(OC)c1` [Example 193, 2-(4-Fluoro-3-methoxyphenylamino)-N-(2-methylbut-3-yn-2-yl)nicotinamide], 4.95.
`C#CC(C)(C)NC(=O)c1cccnc1Nc1cccc(OC)c1F` [Example 169, 2-(2-Fluoro-3-methoxyphenylamino)-N-(2-methylbut-3-yn-2-yl)nicotinamide] had a pIC50 of 4.46.
Next, `C#CC(C)(C)NC(=O)c1cccnc1Nc1ccccc1` [Example 127, N-(2-Methylbut-3-yn-2-yl)-2-(phenylamino)nicotinamide]: 5.36.
To `C#CC(CC)(CC)NC(=O)c1cccc2c1NCCC2` [Example 120, N-(3-Ethylpent-1-yn-3-yl)-1,2,3,4-tetrahydroquinoline-8-carboxamide] belongs 5.08.
On to `C#CC(C)(C)NC(=O)c1cccnc1Nc1cc(F)cc(C#N)c1` [Example 183, 2-(3-Cyano-5-fluorophenylamino)-N-(2-methylbut-3-yn-2-yl)nicotinamide], for which the pIC50 was 5.85.

As a reminder, the pIC50 is −log10 of the IC50, conventionally taken in molar units. Read a low pIC50 as a high IC50.

The values are drawn from patent US9533952B2, “N-prop-2-ynyl carboxamide derivatives and their use as TRPA1 antagonists” (Orion Corporation, priority 2012, dated 2017).
